pEC50: −log10 of the molar value. Like-named read-outs stand apart in the source and are kept apart here.

Assay [1] deals with T1, human somatostatin receptor subtype 2 (Homo sapiens, UniProt P30874).
T1 construct: expressed in transfected cells
Briefly: cAMP assay for SST2R (inhibition of cAMP in CHO-K1 cells). Conditions: Table B; inhibition of cAMP via human SST2 receptor; read-out: SST2 potency. It is filed as cell-based. From the text:
General overview: All five SSTR subtypes are Gi coupled G-protein coupled receptors (GPCRs) that lead to decreases in intracellular cyclic AMP (cAMP) when activated by an agonist. Therefore, measurement of intracellular cAMP levels can be used to assess whether compounds of the invention are agonists of SSTR subtypes (John Kelly, Troy Stevens, W. Joseph Thompson, and Roland Seifert, Current Protocols in Pharmacology, 2005, 2.2.1-2.2). One example of an intracellular cAMP assay is described below.
cAMP Assay Protocol for SST2R:
Four days prior to the assay, 5,000 Chinese hamster ovary cells (CHO-K1, ATCC #CCL-61) stably expressing the human somatostatin receptor subtype 2 are plated in each well of a 96-well tissue culture-treated plate in Ham's F12 growth media (ThermoFisher #10-080-CM) supplemented with 10% donor bovine serum (Gemini Bio-Products #100-506), 100 U/mL penicillin; 100 μg/mL streptomycin; 2 mM L-glutamine (Gemini Bio-Products #400-110) and 0.2 mg/mL hygromycin B (GoldBio #31282-04-9). The cells are cultured at 37° C., 5% CO2 and 95% humidity. On the day of the assay, the media is aspirated and the cells are treated with 50 μL of 1.6 μM NKH477 (Sigma #N3290) plus various dilutions of compounds of the invention in assay buffer [1× Hank's Balanced Salt Solution (ThermoFisher #SH3058802), 0.5 mM HEPES pH 7.4, 0.1% bovine serum albumin, 0.2 mM 3-Isobutyl-1-methylxanthine (IBMX, VWR #200002-790)]. The cells are incubated for 20 minutes at 37° C. […] The cells are treated with 50 μL of lysis buffer (HRTF cAMP kit, Cisbio). The lysate is transferred to 384-well plates and cAMP detection and visualization antibodies are added and incubated for 1-24 hours at room temperature. The time-resolved fluorescent signal is read with a Tecan M1000Pro multiplate reader. The intracellular cAMP concentrations are calculated by regression to a standard curve and are plotted vs. the concentration of the compounds of the invention and the EC50 of the compounds are calculated using standard methods. All data manipulations are in GraphPad Prism v6 or v7.
(In general: Changes in cAMP serve as a functional read-out for many G protein-coupled receptors.)

For assay [2], the target named is T2, human somatostatin receptor subtype 5 (Homo sapiens, UniProt P35346).
T2 construct: expressed in transfected cells
T2 sequence (P35346 whole entry): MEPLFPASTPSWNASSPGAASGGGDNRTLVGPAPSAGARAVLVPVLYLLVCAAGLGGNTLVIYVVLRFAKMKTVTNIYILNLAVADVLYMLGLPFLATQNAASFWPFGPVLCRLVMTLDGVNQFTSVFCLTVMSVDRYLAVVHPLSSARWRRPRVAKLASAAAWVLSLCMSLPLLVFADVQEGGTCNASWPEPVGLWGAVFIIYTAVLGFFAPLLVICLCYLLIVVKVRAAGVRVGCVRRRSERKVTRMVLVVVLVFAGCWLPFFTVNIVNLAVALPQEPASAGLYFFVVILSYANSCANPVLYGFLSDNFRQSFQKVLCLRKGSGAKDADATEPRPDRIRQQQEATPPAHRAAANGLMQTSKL
Briefly: cAMP assay for SST5R (inhibition of cAMP in CHO-K1 cells). It is filed as cell-based. Conditions: for pEC50: inhibition of cAMP via human SST5 receptor, read-out: SST5 potency; for Fold selectivity for SST5 vs SST2: class symbols, SST5 receptor over SST2 receptor. A digest of the protocol: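 CHO-K1 cells stably expressing human SSTR5 were treated 20 min at 37 °C with compounds plus 1.6 μM NKH477 in HBSS, 0.5 mM HEPES pH 7.4, 0.1% BSA, 0.2 mM IBMX. Lysate cAMP measured by HTRF against a standard curve; EC50 from cAMP-versus-concentration plots.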

T1 sequence (P30874 whole entry): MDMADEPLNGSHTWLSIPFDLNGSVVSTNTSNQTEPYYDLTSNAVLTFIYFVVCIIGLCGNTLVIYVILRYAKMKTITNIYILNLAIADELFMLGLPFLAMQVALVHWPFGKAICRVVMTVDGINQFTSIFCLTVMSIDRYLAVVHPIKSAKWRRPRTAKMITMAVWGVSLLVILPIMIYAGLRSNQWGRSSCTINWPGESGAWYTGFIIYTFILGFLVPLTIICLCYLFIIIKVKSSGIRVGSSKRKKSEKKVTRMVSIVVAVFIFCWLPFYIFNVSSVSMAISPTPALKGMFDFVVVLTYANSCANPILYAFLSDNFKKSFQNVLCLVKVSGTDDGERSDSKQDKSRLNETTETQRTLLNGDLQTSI

In the case of `C[C@]1(N)CCN(c2c(C(=O)NC3CC(F)(F)C3)cncc2-c2cc(F)cc(F)c2)C1` [1-30, 4-[(3S)-3-amino-3-methylpyrrolidin-1-yl]-N-(3,3-difluorocyclobutyl)-5-(3,5-difluorophenyl)pyridine-3-carboxamide], the pEC50 in assay [1] is 6.00 to 7.00; in assay [2] (Table A), greater than 8.00; in assay [2] (Table B), greater than 8.00. Besides, in assay [2] (Table B), the “Fold selectivity for SST5 vs SST2” value is reported as “++ (++=100 to 499)”.
Turning to `CCC(CC)NC(=O)c1cncc(-c2cc(F)cc(F)c2)c1N1CC[C@](C)(N)C1` [1-31, 4-[(3S)-3-amino-3-methylpyrrolidin-1-yl]-5-(3,5-difluorophenyl)-N-(pentan-3-yl)pyridine-3-carboxamide], the pEC50 in assay [1] was 6.00 to 7.00; in assay [2] (Table A), greater than 8.00; in assay [2] (Table B), greater than 8.00. Besides, the “Fold selectivity for SST5 vs SST2” value in assay [2] (Table B) is listed as “++ (++=100 to 499)”.
For the compound `CC1(NC(=O)c2cncc(-c3cc(F)cc(F)c3)c2N2CC[C@](C)(N)C2)CCC1` [1-34, 4-[(3S)-3-amino-3-methylpyrrolidin-1-yl]-5-(3,5-difluorophenyl)-N-(1-methylcyclobutyl)pyridine-3-carboxamide], the values for the pEC50 in assay [1], in assay [2] (Table A) and in assay [2] (Table B) were 6.00 to 7.00, greater than 8.00 and greater than 8.00, respectively. Further, the “Fold selectivity for SST5 vs SST2” value in assay [2] (Table B) is “++ (++=100 to 499)”.
For `C[C@]1(N)CCN(c2c(C(=O)NC3CC(F)(F)C3)cncc2-c2cc(F)cc(Cl)c2)C1` [1-35, 4-[(3S)-3-amino-3-methylpyrrolidin-1-yl]-5-(3-chloro-5-fluorophenyl)-N-(3,3-difluorocyclobutyl)pyridine-3-carboxamide], the values for the pEC50 in assay [1], in assay [2] (Table A) and in assay [2] (Table B) were 6.00 to 7.00, greater than 8.00 and greater than 8.00, respectively. Further, the “Fold selectivity for SST5 vs SST2” value in assay [2] (Table B) was “++ (++=100 to 499)”.
On to `C[C@H](NC(=O)c1cncc(-c2cc(F)cc(F)c2)c1N1CC[C@](C)(N)C1)C1CC1` [1-41, 4-[(3S)-3-amino-3-methylpyrrolidin-1-yl]-N-[(1S)-1-cyclopropylethyl]-5-(3,5-difluorophenyl)pyridine-3-carboxamide], for which the pEC50 was 7.00 to 8.00 in assay [1], greater than 8.00 in assay [2] (Table A) and greater than 8.00 in assay [2] (Table B). Further, the “Fold selectivity for SST5 vs SST2” value in assay [2] (Table B) is “++ (++=100 to 499)”.
Regarding `C[C@@H](NC(=O)c1cncc(-c2cc(F)cc(F)c2)c1N1CC[C@](C)(N)C1)C1CC1` [1-44, 4-[(3S)-3-amino-3-methylpyrrolidin-1-yl]-N-[(1R)-1-cyclopropylethyl]-5-(3,5-difluorophenyl)pyridine-3-carboxamide], the pEC50 in assay [1] was 6.00 to 7.00; in assay [2] (Table A), greater than 8.00; in assay [2] (Table B), greater than 8.00. Also, the “Fold selectivity for SST5 vs SST2” value in assay [2] (Table B) is given as “++ (++=100 to 499)”.
For the compound `C[C@]1(N)CCN(c2c(C(=O)NCC3(F)CCC3)cncc2-c2cc(F)cc(F)c2)C1` [1-47, 4-[(3S)-3-amino-3-methylpyrrolidin-1-yl]-5-(3,5-difluorophenyl)-N-[(1-fluorocyclobutyl)methyl]pyridine-3-carboxamide], the pEC50 was 6.00 to 7.00 in assay [1], greater than 8.00 in assay [2] (Table A) and greater than 8.00 in assay [2] (Table B). The “Fold selectivity for SST5 vs SST2” value in assay [2] (Table B) was “+++ (+++=>500)”.
Regarding `C[C@]1(N)CCN(c2c(C(=O)NC3CCC(F)(F)CC3)cnc(C#N)c2-c2cc(F)cc(F)c2)C1` [1-48, 4-[(3S)-3-amino-3-methylpyrrolidin-1-yl]-6-cyano-N-(4,4-difluorocyclohexyl)-5-(3,5-difluorophenyl)pyridine-3-carboxamide], the pEC50 in assay [1] is 6.00 to 7.00; in assay [2] (Table A), greater than 8.00; in assay [2] (Table B), greater than 8.00. The “Fold selectivity for SST5 vs SST2” value in assay [2] (Table B) is “+++ (+++=>500)”.
For `C[C@]1(N)CCN(c2c(C(=O)NC34CC(C3)C4)cnc(C#N)c2-c2cc(F)cc(F)c2)C1` [1-49, 4-[(3S)-3-amino-3-methylpyrrolidin-1-yl]-N-{bicyclo[1.1.1]pentan-1-yl}-6-cyano-5-(3,5-difluorophenyl)pyridine-3-carboxamide], the pEC50 was 6.00 to 7.00 in assay [1], greater than 8.00 in assay [2] (Table A) and greater than 8.00 in assay [2] (Table B). Also, the “Fold selectivity for SST5 vs SST2” value in assay [2] (Table B) is “+++ (+++=>500)”.
Take `C[C@]1(N)CCN(c2c(C(=O)NC(C3CC3)C3CC3)cncc2-c2cc(F)cc(F)c2)C1` [1-51, 4-[(3S)-3-amino-3-methylpyrrolidin-1-yl]-N-(dicyclopropylmethyl)-5-(3,5-difluorophenyl)pyridine-3-carboxamide]: the pEC50 was 6.00 to 7.00 in assay [1], greater than 8.00 in assay [2] (Table A) and greater than 8.00 in assay [2] (Table B). In assay [2] (Table B), the “Fold selectivity for SST5 vs SST2” value is reported as “+++ (+++=>500)”.
Regarding `C[C@H](NC(=O)c1cncc(-c2cc(F)cc(F)c2)c1N1CC[C@](C)(N)C1)C(F)(F)F` [1-54, 4-[(3S)-3-amino-3-methylpyrrolidin-1-yl]-5-(3,5-difluorophenyl)-N-[(2S)-1,1,1-trifluoropropan-2-yl]pyridine-3-carboxamide], the values for the pEC50 in assay [1], in assay [2] (Table A) and in assay [2] (Table B) were 6.00 to 7.00, greater than 8.00 and greater than 8.00, respectively. In addition, the “Fold selectivity for SST5 vs SST2” value in assay [2] (Table B) is given as “++ (++=100 to 499)”.
`CCC(C)CNC(=O)c1cncc(-c2cc(F)cc(F)c2)c1N1CC[C@](C)(N)C1` (stereo partly drawn) [1-57, 4-[(3S)-3-amino-3-methylpyrrolidin-1-yl]-5-(3,5-difluorophenyl)-N-(2-methylbutyl)pyridine-3-carboxamide]: the pEC50 is 6.00 to 7.00 in assay [1], greater than 8.00 in assay [2] (Table A) and greater than 8.00 in assay [2] (Table B). Also, in assay [2] (Table B), the “Fold selectivity for SST5 vs SST2” value is given as “++ (++=100 to 499)”.
`CCC(CC)CNC(=O)c1cncc(-c2cc(F)cc(F)c2)c1N1CC[C@](C)(N)C1` [1-58, 4-[(3S)-3-amino-3-methylpyrrolidin-1-yl]-5-(3,5-difluorophenyl)-N-(2-ethylbutyl)pyridine-3-carboxamide]: the figures for the pEC50 in assay [1], in assay [2] (Table A) and in assay [2] (Table B) were 6.00 to 7.00, greater than 8.00 and greater than 8.00, respectively. In addition, in assay [2] (Table B), the “Fold selectivity for SST5 vs SST2” value was “+++ (+++=>500)”.
On to `N[C@H]1CCN(c2c(C(=O)NC(C3CC3)C3CC3)cncc2-c2cc(F)cc(Cl)c2)C1` [1-61, 4-[(3S)-3-aminopyrrolidin-1-yl]-5-(3-chloro-5-fluorophenyl)-N-(dicyclopropylmethyl)pyridine-3-carboxamide], for which the pEC50 was less than 6.00 in assay [1], greater than 8.00 in assay [2] (Table A) and greater than 8.00 in assay [2] (Table B). The “Fold selectivity for SST5 vs SST2” value in assay [2] (Table B) was “+++ (+++=>500)”.
Turning to `N#Cc1ncc(C(=O)NC23CC(C2)C3)c(N2CC[C@H](N)C2)c1-c1cc(F)cc(F)c1` [1-64, 4-[(3S)-3-aminopyrrolidin-1-yl]-N-{bicyclo[1.1.1]pentan-1-yl}-6-cyano-5-(3,5-difluorophenyl)pyridine-3-carboxamide], the values for the pEC50 in assay [1], in assay [2] (Table A) and in assay [2] (Table B) were less than 6.00, greater than 8.00 and greater than 8.00, respectively. The “Fold selectivity for SST5 vs SST2” value in assay [2] (Table B) was “+++ (+++=>500)”.
As to `N#Cc1ncc(C(=O)NC23CC(C2)C3)c(N2CC[C@H](N)C2)c1-c1ccc(F)c(F)c1` [1-66, 4-[(3S)-3-aminopyrrolidin-1-yl]-N-{bicyclo[1.1.1]pentan-1-yl}-6-cyano-5-(3,4-difluorophenyl)pyridine-3-carboxamide], the pEC50 was less than 6.00 in assay [1], greater than 8.00 in assay [2] (Table A) and greater than 8.00 in assay [2] (Table B). For the same compound, the “Fold selectivity for SST5 vs SST2” value in assay [2] (Table B) is “+++ (+++=>500)”.

For the origin of these results see patent US12600709B2, “Nonpeptide somatostatin type 5 receptor agonists and uses thereof” (Crinetics Pharmaceuticals, Inc., priority 2019, dated 2026).
